# Data as given in patent US20210205348A1, “Methods for the Treatment of Bladder Cancer” (Eisai R&D Management Co., Ltd., priority 2018, published 2021).
# Assays:
# [1] = system: IFNβ; assay: Ex vivo human PBMC stimulation assay, IFNβ protein; format: cell-based; details: 24 hours, average of five donors
# Procedure: Human blood from 5 healthy donors was collected using 10.0 mL BD Vacutainer Sodium heparin tubes (cat #367874). Peripheral blood mononuclear cell (PBMC) isolation was done using SIGMA ACCUSPIN 50 ml Tubes (cat #A2055) and sigma ACCUSPIN System-HISTOPAQUE-1077 (cat #A7054) using protocol provided by manufacturer. […] PBMC were counted and finally suspended @ 1x10e6/ml in RPMI (corning cat #10-041-CV supplemented with 10% fetal bovine serum (FBS) (Gibco cat #20140.79). 1ml of cell (1×10e6) were transferred into Falcon 5 mL Round Bottom Polypropylene Test Tube (cat #352063) and stimulated with different concentrations (0, 0.1, 1, 10 uM) for 24 hours in 5% CO2 incubator at 37° C.
# After 24 hours of incubation the tubes were centrifuged at 1400 rpm for 5 minutes and supernatants were harvested. Supernatant were stored in −80° C. for subsequent IFNβ measurement. IFNβ measurement was done using Human IFN-β Base Kit (Meso Scale Diagnostics cat #K151ADA) and protocol provided by manufacturer was used. IFN-beta estimation was done by reading assay plate at MESO SECTOR Imager 2400 and using MSD Discovery Workbench 4.0 program. After 24 hours IFNβ protein was analyzed.
# Results shown in Table 3 reflect an average of measurements conducted using five different donors.
# [2] = system: GL261 mouse glioma cells; assay: GL261 brain orthotopic model; format: in vivo; details: 10 mg/kg intratumorally, a single time
# Description: GL261 is a murine glioma cell line.
# [3] = system: hepatocytes of Sprague Dawley rat; assay: Hepatocyte incubation, identification of potential metabolites; format: in vitro ADME; details: 10 μmol/L
# Procedure: (§1) Prior to incubations, the cryopreserved hepatocytes were thawed in a water bath at 37° C. One tube of cryopreserved hepatocytes was added to each 50-mL conical tube of cryopreserved hepatocyte recovery medium (UCRM) obtained from In Vitro ADMET Laboratories (Columbia, Md.). The cells were spun in a Beckman centrifuge (Brea, Calif.) with a GH 3.8 rotor at 740 rpm for 10 minutes at […]. The supernatant was removed and the cells were re-suspended in plating media for counting. After the cells were re-suspended in plating media, 20 μL of the re-suspension was transferred and mixed with 20 μL of AOPI staining solution. The solution was gently mixed and cells were counted using a Cellometer (Nexcelom, Lawrence, Mass.). After counting, the cells were then re-suspended at 1 or 2 million viable cells/mL in Williams' E media containing 2 mmol/L L-glutamine (pH 7.4).
# (§2) The hepatocyte suspension (50 μL/well) was added into a 48-well plate. […] The plate was placed into a tissue culture incubator (5% CO2/95% air humidified atmosphere and 37° C.), and the reactions were terminated with 200 μL of stop solution consisting of 100% methanol/acetonitrile (1/1, v/v) with 2010 ng/mL furosemide and 0.2 μmol/L (R)-propranolol at 5, 30, 60, 120, 180 and 240 minutes. The mixture was centrifuged and filtered, and the supernatant was collected for analysis. The final concentrations of cryopreserved hepatocytes were 1×10^6 cells/mL.
# (§3) The LC-MS/MS system was composed of a Shimadzu HPLC and an AB-SCIEX TripleTOF 5600 hybrid quadrupole and TOF mass spectrometer (Framingham, Mass.). The Shimadzu HPLC (Kyoto, Japan), consisted of a communications bus module (CBM-20A), an auto-sampler (SIL-30AC) with an attached rack changer (Rack Changer II) two pumps (LC-30AD) and a column oven (CTO-30A). The mass spectrometer was calibrated using the AB-SCIEX APCI both Negative and Positive Calibration Solutions (Framingham, Mass.). The samples obtained from incubations with hepatocytes were analyzed under both negative and positive scan modes. The basic analytical method and instrumental conditions are summarized below. Modification of the spectrometer settings was dependent on the necessity of the analyte.
# (§4) Mass spectrometry data were acquired using AB-Sciex Analyst TF (Version 1.5.1; Framingham, Mass.). Chromatograms and spectra were obtained using AB-Sciex PeakView (Version 2.2.0.1; Framingham, Mass.). The comparison of relative peak areas for extracted ion chromatograms were based on ±0.0002 Da of the expected exact mass-to-charge ratio (m/z) for each analyte of interest.
# [4] = system: hepatocytes of human; assay: as above; format: in vitro ADME; details: 10 μmol/L
# Procedure: as §1, §2, §3, §4
# [5] = system: hepatocytes of Cynomoigus monkey; assay: as above; format: in vitro ADME; details: 10 μmol/L
# Procedure: as §1, §2, §3, §4
# [6] = system: hepatocytes of CD-1 mouse; assay: as above; format: in vitro ADME; details: 10 μmol/L
# Procedure: as §1, §2, §3, §4
# [7] = system: hepatocytes of Beagle dog; assay: as above; format: in vitro ADME; details: 10 μmol/L
# Procedure: as §1, §2, §3, §4
# [8] = system: CT26 tumor cells; assay: CT26 liver metastatic model; details: 10 mg/kg intratumorally, a single time
# [9] = system: CT26 tumor cells; assay: CT26 dual tumor model (mouse colon cancer model)
# Procedure: For study B, treatment was started 8 days (0.6 mg/kg, and 10 mg/kg) after the tumor implantation, when the average tumors reached approximately 120 mm^3.
# All the mice in the study have two subcutaneous CT26 tumors. The “treated tumor” indicates the tumor with compound direct administration, while “untreated tumor” indicates the tumor without direct compound administration. Tumor volume was followed throughout the experiment. Tumor volume is measured two times weekly after the start of treatment. Tumor burden is calculated from caliper measurements by the formula for the volume of a prolate ellipsoid (L×W^2)/2 where L and W are the respective orthogonal length and width measurements (mm),
# [10] = system: MBT-2 tumor cells; assay: MBT-2 murine bladder cancer orthotopic model; format: in vivo, mouse
# Procedure: The protocol with HCl pre-treatment procedure described by Lee, et al. was applied to establish the model. In brief, 30 μL 0.1 N HCl solution was injected into mouse bladder through a catheter and HCl solution was allowed to remain in the bladder for 15 seconds. Then the HCl solution was replaced by 30 μL 0.1N NaOH solution followed by one flushing step with 1 X PBS (pH7.4). The follow-up tumor cell implantation procedure was modified from the original literature. In brief, after a flushing step, MBT-2 tumor cells (2 ×10^6 cells in 50 μL RPMI1640 medium) were instilled into the bladder and allowed to remain for 45 minutes. At the end of this 45 minute period, the bladder was drained.
# On each day of dosing BCG was diluted in NaCl 0.9% (Lavoisier, France) to reach the final concentration of 16.875 mg/mL for dosing. Any leftover dosing solution was discarded after use. For anti-PD-1 antibody, 1 x PBS (Lonza, France) was used to dilute the stock solution to prepare 1 mg/mL working solution for dosing.
# From days 20-21, tumor growth in bladder was quantitated by MRI (Magnetic resonance imaging) and tumor sizes of all mice were graphed as shown in FIG. 7.
smiles,measurement,setting,value
O=P1(S)OCC2OC3C(F)C2OP(=O)(S)OCC2OC(C(F)C2O1)n1cnc2c(ncnc21)NCC=CCNc1ncnc2c1ncn23 (centres unmarked) [Compound 1a],IFNβ,[1]; 0.1 μM,21.3 ± 17.8 pg/mL
same,IFNβ,[1]; 1 μM,227.5 ± 62.4 pg/mL
same,IFNβ,[1]; 10 μM,540.2 ± 215.0 pg/mL
same,activity at local sc tumors,[2],potent activity
same,curative systemic activity (treated animals),[2]; into the sc tumor,5 of 8
same,formation of major metabolites,"[3]; rat hepatocytes, LC-MS/MS",No apparent metabolite
same,stability in incubations with hepatocytes,"[3]; rat, up to 240 minutes",stable
same,formation of major metabolites,"[4]; human hepatocytes, LC-MS/MS",No apparent metabolite
same,stability in incubations with hepatocytes,"[4]; human, up to 240 minutes",stable
same,formation of major metabolites,"[5]; monkey hepatocytes, LC-MS/MS",No apparent metabolite
same,stability in incubations with hepatocytes,"[5]; monkey, up to 240 minutes",stable
same,formation of major metabolites,"[6]; mouse hepatocytes, LC-MS/MS",No apparent metabolite
same,stability in incubations with hepatocytes,"[6]; mouse, up to 240 minutes",stable
same,formation of major metabolites,"[7]; dog hepatocytes, LC-MS/MS",No apparent metabolite
same,stability in incubations with hepatocytes,"[7]; dog, up to 240 minutes",stable
same,activity towards the local sc tumors,[8],potent activity
same,curative systemic activity (treated animals),[8]; into the sc tumor,9 of 10
same,"cure rate, treated tumors",[9]; 0.6 mg/kg I.T. single dose,20%
same,"curative effects, untreated tumors",[9]; 10 mg/kg I.T. single dose,80%
same,"animals cured, treated tumors","[9]; 10 mg/kg I.T. single dose, end of study",100%
same,effect on untreated tumors,[9]; all the lower doses (0.6 to 5 mg/kg) I.T. single dose,tumor growth inhibition activity
same,tumor volumes quantified by MRI,"[10]; days 20-21, 100, 200, 400 μg/mouse IVe Q7Dx3, also 400 μg/mouse with PD1 antibody (Groups 4 to 7), vs vehicle, BCG and PD1 antibody groups",much smaller tumor volumes
same,survival relative to vehicle treated animals,"[10]; intravesicular, Q7Dx3 (FIG. 8)",statistically significant survival benefit
